For assay [1], the target named is T1, Human lysozyme (Homo sapiens, UniProt P61626).
T1 construct: gene LYZ
T1 sequence (P61626 19-148): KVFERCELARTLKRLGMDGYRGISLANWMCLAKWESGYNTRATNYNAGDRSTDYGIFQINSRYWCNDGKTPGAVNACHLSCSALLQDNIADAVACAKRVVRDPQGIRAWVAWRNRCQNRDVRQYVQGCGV
Nature of the assay: UV-vis absorption titration, double-reciprocal plot. Type of assay: binding. From the text: UV-vis absorption titration, double-reciprocal plot on Human lysozyme

The target of assay [2] is T1, Human lysozyme. The experiment in a line: intrinsic fluorescence quenching, excitation […] nm. Format: binding. To be noted: double-log; sodium phosphate pH 7.4, lysozyme 10 µM, doxofylline 0–60 µM.

Take `Cn1c(=O)c2c(ncn2CC2OCCO2)n(C)c1=O` [doxofylline]: the dissociation constant Kd on Human lysozyme [1] came to 5.18 µM. On Human lysozyme [2], this compound displayed a Kb of 22900 M⁻¹.

One may read the Kd as the free concentration of one partner at which half of the binding sites on the other are occupied at equilibrium, for simple one-to-one binding. The low end stands for a tighter complex, the high end for a looser complex.

These data come from publication PMC10146846, “Studying the Mechanism of Interaction of Doxofylline with Human Lysozyme: A Biophysical and In Silico Approach” (Molecules, 2023).
